According to patent publication US20100248229A1, “INVITRO HUMAN EMBRYONIC MODEL AND A METHOD THEREOF” (Stempeutics Research Private Limited, priority 2007, published 2010):

How the values were obtained:
Format in all cases: cell-based, human
hESCs (EB formation) = assay: Effect on the formation of EBs from hESCs; settings: 10 pg/ml and above
Method: Human Embryonic Stem Cells (hESCs) cultured on feeder cells of mouse or human origin, or cultured in feeder free conditions were exposed to several different dilutions of the drug for 6 days and subjected to Embryoid Body (EB) formation on non adherent plates, in presence of the drug for another 4 days. The control set was free from any extraneous addition of drugs. The formation of normal EBs in the control was evaluated by testing the expression of all the germ lineage, pluripotency and epigenomic markers as given in table Nos. 1-7 by RT-PCR, Flow Cytometry and Immunofluorescence. Alteration in the expression profiles of these genes in the treated EBs indicated a detrimental effect on embryonic development. A failure to form nicely cavitating EBs, as observed under the microscope, or a delay in the formation of the EBs as compared to the control indicated a possible embryo toxic effect of the drug.
The effect of molecules/compounds was screened. The compound, such as Rho Kinases inhibitor Y27632, 5-Azacytidine, and gram negative bacterial endotoxin lipopolysaccharide (LPS) on the formation of EBs from hESCs were screened for their toxic activity. LPS is known to be involved in genital tract infection related pathogenesis and pregnancy losses.

EBs = assay: In vitro 3-D embryo implantation model: attachment and outgrowth of EBs
Description: An in vitro 3-dimensional (3-D) model/system for embryo implantation employing EBs in place of embryos was developed. The EBs collected on different days were subjected to implantation/attachment on the artificial substratum/surface.
To make this artificial surface regular tissue culture dishes or organ culture dishes were coated with about 1 to 2 mm thick coating of 0.5 to 1% low melting or high melting agarose in DPBS. A few wells of about 1 to 2 mm diameter are created using sterile paper disks, preferable in the center of the dish, which were removed after the agarose solidifies. Alternatively a horizontal tube like structure can be created by casting the gel over a fine glass capillary, which can be withdrawn as the agarose solidifies. This cavity/depression or tube like structure of agarose is then coated with matrix proteins like matrigel, collagen, fibronectin, laminin, gelatin etc. The coated agarose dishes were also layered with mouse or human endometrial stromal cells obtained from primary cultures or cell lines. The EBs were placed carefully in the cavity created or flushed inside the tube using a bent pasture pipette. The cells were cultured in normal standard EB media.
The EBs adhere and outgrows spreading out as a monolayer of cells on the extracellular matrix. Some cells invaded the surrounding agarose by day 10. A failure to implant/outgrow within ten days on this matrix after exposure to the drug/molecule indicates an abnormality. However, some drugs/could also support/enhance the process of attachment and outgrowth of the EBs. These molecules were screened for several other possible applications, though these may not necessarily be safe for embryonic development.
Four day old EBs were cultured on agarose and fibronectin coated surfaces. […] However, as Y27632 supports and enhances outgrowth, the effect of this drug on the expression profiles of the lineage markers and other genes needs to be screened for evaluating effect on normal development.
The model consists of a culture plate which is coated with Low melting (0.5%) agarose, A well of various depths is created in the agarose by various means eg: putting sterile filter paper disks while casting the gel and removing them latter. The gel is then coated with extracellular matrix components like fibronectin, collagen, laminin, etc. Human endometrial stromal fibroblast cell line CRL4003 is grown on this extracellular matrix as a monolayer. The spherical embryoid bodies or embryo like entities at day 4.5 are injected or pipetted into these cavities. The attachment is allowed in a culture media regularly used for hESC culture, without FGF2 supplementation (FIG. 1).
3. Lineage induction studies: The embryoid bodies after attachment to the implantation site differentiates to all lineages.
Method: Spherical Cytic EBs were collected on day 4.5 and exposed to the continuous presence of Y27632 (various doses were used). […] The control cytic EB had however just attached with smaller area of outgrowth showing that this dose of Y27632 can help in initial implantation of embryo during pregnancy.

[1] = tested on: EBs derived from hESC line HUES9; assay: Cell counting: DAPI stained nuclei per EB; settings: 12.5 pg/ml for 48 hrs
Method: Immunofluorescence and Cell counting: HESCs were grown on coverslips coated with MEFs and then fixed with 4% paraformaldehyde and 5% sucrose (Sigma) followed by permeabilization in 0.2% Triton X100 (Sigma). The slides were then incubated with primary antibodies 1:500 dilution of SSEA4 (Chemicon, Calif., USA), 5 ug/ml Nanog (Santa Cruz Biotechnology, CA, USA), 10 μg/ml Brachury (R&D Systems Inc. Minneapolis, USA), and 1.5 μg/ml HMGB1 (Sigma) overnight at 4° C. After washing thrice with PBS, fluorescein isothiocyanate/Texas red-labeled Secondary antibodies against the primary goat/rabbit/mouse were added as 1:500 dilutions and incubated for 2 hours. DAPI (Sigma) was used for nuclear staining and then washed with PBS. The negative controls were done without primary antibodies. Slides were mounted with DABCC (Sigma) and images were acquired using Nikon Eclipse 90i microscope (Nikon Corporation, Japan) and Image-Pro Express software (Media Cybernetics, Inc, Silver Spring, Md.). The results were then compared with the control cells (non-LPS treated EBs). To count the number of cells per EB, the number of DAPI stained nuclei were counted in 10 each of the control and LPS treated EBs.
Cell numbers and DNA fragmentation: For a count of the average number of cells per EB, the DAPI stained nuclei were counted in individual control and LPS treated EBs under epifluorescence. […]

[2] = tested on: EBs derived from hESC line HUES9; assay: Comet assay: DNA fragmentation in EBs; settings: EBs exposed for 48 hours
Method: Comet assay: Detection of DNA damage in individual EBs was carried out with a slight modification of the method described by. Comet tail length was calculated by measuring the streak of DNA comet tail between the edge of the embryoid bodies till the end of tail using Nikon Eclipse 90i microscope (Nikon Corporation, Japan) and Image-Pro Express software (Media Cybernetics, Inc, Silver Spring, Md.).

For lipopolysaccharide [LPS], the “EB formation from hESCs” value (hESCs (EB formation)) was “complete inhibition of EB formation”, the “attachment and outgrowth of EBs” value (EBs; four day old EBs on agarose and fibronectin coated surfaces, 15 pg/ml and above) was “completely inhibited” and the “degeneration, attachment and outgrowth of EBs in implantation model” value (EBs; high dose, 48 hrs) was “degeneration of the EBs, and they failed to attach and outgrow”. The “ability of attached EBs to give rise to all lineages” value (EBs; lineage induction studies, in presence of the compound) was “compromised”, the “average number of cells per EB, treated vs control” value [1] was “not significantly different” and the “average number of cells/EB (mean±SD)” value ([1]; control 142.33±48.41) was 175±75.47 cells/EB. For the same substance, the “DNA tailing or fragmentation compared to control” value [2] was “more DNA tailing or fragmentation” and the “DNA tailing or fragmentation (comet tail length, average)” value ([2]; control 2.48±1.0701 μm) was 21.48±12.443 μm.
